# Measurements: patent US6440903B1, “Substituted 2,4-diamino-1,3,5-triazines as herbicides” (Bayer Aktiengesellschaft, priority 1996, dated 2002)
# Legend:
# Format in all cases: in vivo
# weeds = test: Post-emergence test (summary in text); details: result in words
# Protocol: Solvent: 5 parts by weight of acetone
# Emulsifier: 1 part by weight of alkylaryl polyglycol ether
# To produce a suitable preparation of active compound, 1 part by weight of active compound is mixed with the stated amount of solvent, the stated amount of emulsifier is added and the concentrate is diluted with water to the desired concentration.
# Test plants which have a height of 5-15 cm are sprayed with the preparation of active compound such that the particular amounts of active compounds desired are applied per unit area. The concentration of the spray liquor is chosen so that the particular amounts of active compound desired are applied in 1000 l of water/ha.
# After three weeks, the degree of damage to the plants is scored visually in % damage in comparison to the untreated control.
# 0%=no effect (like untreated control)
# Amaranthus = test: Post-emergence test; details: greenhouse, scored after three weeks
# Protocol: (§1) Post-emergence Test Solvent: 5 parts by weight of acetone Emulsifier: 1 part by weight of alkylaryl polyglycol ether To produce a suitable preparation of active compound, 1 part by weight of active compound is mixed with the stated amount of solvent, the stated amount of emulsifier is added and the concentrate is diluted with water to the desired concentration. Test plants which have a height of 5-15 cm are sprayed with the preparation of active compound such that the particular amounts of active compounds desired are applied per unit area. The concentration of the spray liquor is chosen so that the particular amounts of active compound desired are applied in 1000 l of water/ha. After three weeks, the degree of damage to the plants is scored visually in % damage in comparison to the untreated control. The Figures Denote: 0%=no effect (like untreated control) 100%=total destruction
# Viola = test: Post-emergence test; details: greenhouse, scored after three weeks
# Protocol: as §1
# Chenopodium = test: Post-emergence test; details: greenhouse, scored after three weeks
# Protocol: as §1
# Wheat = test: Post-emergence test; details: greenhouse, scored after three weeks; for plant injury at 500 g/ha: 500 g of ai./ha; for % damage, Wheat / plant injury at 250 g/ha: 250 g of ai./ha
# Protocol: as §1
# Setaria = test: Post-emergence test; details: greenhouse, scored after three weeks; for pest or weed control at 500 g/ha / pest or weed control at 250 g/ha: Setaria, 504 h, read-out: % damage, Setaria
# Protocol: as §1
# Polygonum = test: Post-emergence test; details: greenhouse, scored after three weeks
# Protocol: as §1
# [1] = Amaranthus, 504 h, 500 g of ai./ha, read-out: % damage, Amaranthus
# [2] = 504 h, 500 g of ai./ha, read-out: % damage, Viola
# [3] = Chenopodium, 504 h, 500 g of ai./ha, read-out: % damage, Chenopodium
# [4] = Triticum aestivum, 504 h, read-out: % damage, Wheat
# [5] = Polygonum, 504 h, 500 g of ai./ha, read-out: % damage, Polygonum
# [6] = Amaranthus, 504 h, 250 g of ai./ha, read-out: % damage, Amaranthus
# [7] = 504 h, 250 g of ai./ha, read-out: % damage, Viola
# [8] = Chenopodium, 504 h, 250 g of ai./ha, read-out: % damage, Chenopodium
# [9] = Polygonum, 504 h, 250 g of ai./ha, read-out: % damage, Polygonum
smiles,measurement,setting,value
CCc1nc(N)nc(NC(C)c2ccc(Cl)cc2)n1 (stereo not drawn) [Example 166],activity against weeds,weeds,strong activity
CC(Nc1nc(N)nc(C(Cl)Cl)n1)c1ccc(Cl)cc1 (stereo not drawn) [Example 94],activity against weeds,weeds,strong activity
CC(=O)Nc1nc(NC(C)c2ccc(Cl)cc2)nc(C(C)Cl)n1 (stereo not drawn) [drawing 134],pest or weed control at 500 g/ha,Amaranthus; [1],100%
same,pest or weed control at 500 g/ha,Viola; [2],100%
same,pest or weed control at 500 g/ha,Chenopodium; [3],100%
same,plant injury at 500 g/ha,Wheat; [4],10%
same,pest or weed control at 500 g/ha,Setaria; 500 g of ai./ha,100%
same,pest or weed control at 500 g/ha,Polygonum; [5],100%
COc1ccc(C(C)Nc2nc(N)nc(C(F)(F)F)n2)cc1 (stereo not drawn) [Example 79],activity against weeds,weeds,strong activity
CCC(Nc1nc(N)nc(C(F)(F)F)n1)c1ccc(Cl)cc1 (stereo not drawn) [drawing 139],pest or weed control at 1000 g/ha,"Amaranthus; Amaranthus, 504 h, 1000 g of ai./ha, read-out: % damage, Amaranthus",100%
same,pest or weed control at 1000 g/ha,"Viola; 504 h, 1000 g of ai./ha, read-out: % damage, Viola",100%
same,pest or weed control at 1000 g/ha,"Chenopodium; Chenopodium, 504 h, 1000 g of ai./ha, read-out: % damage, Chenopodium",100%
same,plant injury at 1000 g/ha,"Wheat; Triticum aestivum, 504 h, 1000 g of ai./ha, read-out: % damage, Wheat",10%
same,pest or weed control at 1000 g/ha,"Polygonum; Polygonum, 504 h, 1000 g of ai./ha, read-out: % damage, Polygonum",100%
CC(Nc1nc(N)nc(C(F)C(F)(F)F)n1)c1ccc(Cl)cc1 (stereo not drawn) [drawing 124],"% damage, Amaranthus",Amaranthus; 250 g of ai./ha,100%
same,"% damage, Viola",Viola; 250 g of ai./ha,95%
same,"% damage, Chenopodium",Chenopodium; 250 g of ai./ha,100%
same,"% damage, Wheat",Wheat,10%
same,"% damage, Setaria",Setaria; 250 g of ai./ha,90%
same,"% damage, Polygonum",Polygonum; 250 g of ai./ha,95%
CCc1nc(N)nc(NC(C)c2ccc(Cl)cc2)n1 (stereo not drawn) [Example 91],activity against weeds,weeds,strong activity
CSc1ccc(C(C)Nc2nc(N)nc(C(C)(Cl)Cl)n2)cc1 (stereo not drawn) [drawing 114],pest or weed control at 500 g/ha,Amaranthus; [1],100%
same,pest or weed control at 500 g/ha,Viola; [2],100%
same,pest or weed control at 500 g/ha,Chenopodium; [3],100%
same,plant injury at 500 g/ha,Wheat; [4],0%
same,pest or weed control at 500 g/ha,Setaria; 500 g of ai./ha,80%
same,pest or weed control at 500 g/ha,Polygonum; [5],100%
CC(Nc1nc(N)nc(C(Cl)Cl)n1)c1ccc(Cl)cc1 (stereo not drawn) [drawing 129],pest or weed control at 500 g/ha,Amaranthus; [1],100%
same,pest or weed control at 500 g/ha,Viola; [2],100%
same,pest or weed control at 500 g/ha,Chenopodium; [3],100%
same,plant injury at 500 g/ha,Wheat; [4],10%
same,pest or weed control at 500 g/ha,Setaria; 500 g of ai./ha,100%
same,pest or weed control at 500 g/ha,Polygonum; [5],100%
CC(Cl)c1nc(N)nc(NC(C)c2ccc(Cl)cc2)n1 (stereo not drawn) [drawing 125],"% damage, Amaranthus",Amaranthus; 250 g of ai./ha,100%
same,"% damage, Viola",Viola; 250 g of ai./ha,95%
same,"% damage, Chenopodium",Chenopodium; 250 g of ai./ha,95%
same,"% damage, Wheat",Wheat,10%
same,"% damage, Setaria",Setaria; 250 g of ai./ha,80%
same,"% damage, Polygonum",Polygonum; 250 g of ai./ha,95%
CC(Nc1nc(N)nc(Cl)n1)c1ccc(Cl)cc1 (stereo not drawn) [Example 5],activity against weeds,weeds,strong activity
COCc1nc(N)nc(NC(C)c2ccc(Cl)cc2)n1 (stereo not drawn) [Example 170],activity against weeds,weeds,strong activity
CC(Nc1nc(N)nc(C(Cl)Cl)n1)c1ccc(Cl)cc1 (stereo not drawn) [drawing 119],pest or weed control at 250 g/ha,Amaranthus; [6],100%
same,pest or weed control at 250 g/ha,Viola; [7],100%
same,pest or weed control at 250 g/ha,Chenopodium; [8],100%
same,plant injury at 250 g/ha,Wheat; [4],10%
same,pest or weed control at 250 g/ha,Setaria; 250 g of ai./ha,90%
same,pest or weed control at 250 g/ha,Polygonum; [9],100%
CC(Nc1nc(N)nc(Cl)n1)c1ccc(Cl)cc1 (stereo not drawn) [Example 4],activity against weeds,weeds,strong activity
CC(Nc1nc(N)nc(C(F)(F)F)n1)c1ccc(Cl)cc1 (stereo not drawn) [Example 15],activity against weeds,weeds,strong activity
CC(=O)Nc1nc(NC(C)c2ccc(Cl)cc2)nc(C(F)(F)F)n1 (stereo not drawn),pest or weed control at 500 g/ha,Amaranthus; [1],100%
same,pest or weed control at 500 g/ha,Viola; [2],100%
same,pest or weed control at 500 g/ha,Chenopodium; [3],100%
same,plant injury at 500 g/ha,Wheat; [4],10%
same,pest or weed control at 500 g/ha,Setaria; 500 g of ai./ha,95%
same,pest or weed control at 500 g/ha,Polygonum; [5],100%
CCC(Nc1nc(N)nc(C(F)(F)F)n1)c1ccc(Cl)cc1 (stereo not drawn) [Example 86],activity against weeds,weeds,strong activity
CCc1nc(N)nc(NC(C)c2ccc(Cl)cc2)n1 (stereo not drawn) [drawing 127],"% damage, Amaranthus",Amaranthus; 500 g of ai./ha,100%
same,"% damage, Viola",Viola; 500 g of ai./ha,100%
same,"% damage, Chenopodium",Chenopodium; 500 g of ai./ha,100%
same,"% damage, Setaria",Setaria; 500 g of ai./ha,100%
same,"% damage, Polygonum",Polygonum; 500 g of ai./ha,100%
COCc1nc(N)nc(NC(C)c2ccc(Cl)cc2)n1 (stereo not drawn) [drawing 118],pest or weed control at 250 g/ha,Amaranthus; [6],100%
same,pest or weed control at 250 g/ha,Viola; [7],100%
same,pest or weed control at 250 g/ha,Chenopodium; [8],100%
same,plant injury at 250 g/ha,Wheat; [4],10%
same,pest or weed control at 250 g/ha,Setaria; 250 g of ai./ha,80%
same,pest or weed control at 250 g/ha,Polygonum; [9],100%
CC(Nc1nc(N)nc(C(C)(Cl)Cl)n1)c1ccc(Cl)cc1 (stereo not drawn) [Example 97],activity against weeds,weeds,strong activity
CC(=O)Nc1nc(NC(C)c2ccc(Cl)cc2)nc(C(Cl)Cl)n1 (stereo not drawn) [drawing 133],pest or weed control at 500 g/ha,Amaranthus; [1],100%
same,pest or weed control at 500 g/ha,Viola; [2],100%
same,pest or weed control at 500 g/ha,Chenopodium; [3],100%
same,plant injury at 500 g/ha,Wheat; [4],10%
same,pest or weed control at 500 g/ha,Setaria; 500 g of ai./ha,80%
same,pest or weed control at 500 g/ha,Polygonum; [5],100%
CC(Cl)c1nc(N)nc(NC(C)c2ccc(Cl)cc2)n1 (stereo not drawn) [drawing 120],pest or weed control at 250 g/ha,Amaranthus; [6],100%
same,pest or weed control at 250 g/ha,Viola; [7],100%
same,pest or weed control at 250 g/ha,Chenopodium; [8],100%
same,"% damage, Wheat",Wheat,0%
same,pest or weed control at 250 g/ha,Setaria; 250 g of ai./ha,80%
same,pest or weed control at 250 g/ha,Polygonum; [9],100%
CC(Cl)c1nc(N)nc(NC(C)c2ccc(Cl)cc2)n1 (stereo not drawn) [Example 96],activity against weeds,weeds,strong activity
CCc1nc(N)nc(NC(C)c2ccc(Cl)cc2)n1 (stereo not drawn) [drawing 123],pest or weed control at 500 g/ha,Amaranthus; [1],100%
same,pest or weed control at 500 g/ha,Viola; [2],100%
same,pest or weed control at 500 g/ha,Chenopodium; [3],100%
same,pest or weed control at 500 g/ha,Setaria; 500 g of ai./ha,95%
same,pest or weed control at 500 g/ha,Polygonum; [5],100%
COc1ccc(C(C)Nc2nc(N)nc(C(C)F)n2)cc1 (stereo not drawn) [drawing 136],pest or weed control at 250 g/ha,Amaranthus; [6],100%
same,pest or weed control at 250 g/ha,Viola; [7],95%
same,pest or weed control at 250 g/ha,Chenopodium; [8],100%
same,plant injury at 250 g/ha,Wheat; [4],10%
same,pest or weed control at 250 g/ha,Polygonum; [9],100%
CCc1nc(N)nc(NC(C)c2ccc(Cl)cc2)n1 (stereo not drawn) [Example 153],activity against weeds,weeds,strong activity
CC(Nc1nc(N)nc(C(F)(F)F)n1)c1ccc(Cl)cc1 (stereo not drawn) [Example 21],activity against weeds,weeds,strong activity
COCc1nc(N)nc(NC(C)c2ccc(Cl)cc2)n1 (stereo not drawn) [drawing 130],"% damage, Amaranthus",Amaranthus; 250 g of ai./ha,100%
same,"% damage, Viola",Viola; 250 g of ai./ha,100%
same,"% damage, Chenopodium",Chenopodium; 250 g of ai./ha,100%
same,"% damage, Wheat",Wheat,10%
same,"% damage, Polygonum",Polygonum; 250 g of ai./ha,100%
CC(Cl)c1nc(N)nc(NC(C)c2ccc(Cl)cc2)n1 (stereo not drawn) [Example 171],activity against weeds,weeds,strong activity
CC(Nc1nc(N)nc(Cl)n1)c1ccc(Cl)cc1 (stereo not drawn) [Example 8],activity against weeds,weeds,strong activity
COc1ccc(C(C)Nc2nc(N)nc(C(C)F)n2)cc1 (stereo not drawn) [Example 190],activity against weeds,weeds,strong activity
CCC(Nc1nc(N)nc(C(F)(F)F)n1)c1ccc(Cl)cc1 (stereo not drawn) [Example 87],activity against weeds,weeds,strong activity
